US20140378474A1, “5-membered heteroarylcarboxamide derivatives as plasma kallikrein inhibitors” (NOVARTIS AG, priority 2012, published 2014)

biological target: T1, Human plasma kallikrein (Homo sapiens, UniProt P03952); assay: In vitro inhibition of plasma kallikrein (fluorogenic substrate DPro-Phe-Arg-(Rh110)-γGlu-OH); type: biochemical; details: human plasma kallikrein nominally 12 pM, substrate 0.5 μM, 1 hour pre-incubation at room temperature, read after 1 hour (t=60 min)
T1 construct: purchased Kordia (Leiden, Netherlands) batch HPKA 1303
Description: In Vitro Inhibition of Plasma Kallikrein
The fluorogenic substrate DPro-Phe-Arg-(Rh110)-γGlu-OH (where DPro is the amino acid d-proline, Rh110 is the fluorophore rhodamine 110 and γGlu is a […] linked to Rh110 via the gamma-carbonyl function; from Biosyntan, Berlin, Germany), being based on the chromogenic substrate described in Gallimore et al (Thromb Res 25, 293-298, 1982), was dissolved in DMSO at 5 mM and stored at −80° C. All other chemicals were of analytical grade.
Human plasma kallikrein was purchased from Kordia (Leiden, Netherlands, batch HPKA 1303) in lyophilized form.
The protein solution was reconstituted from the lyophilisate by addition of deinonized water. The resulting stock solution comprised the protein at a concentration of 0.17 mg/ml in 4 mM sodium acetate/HCl and 150 mM NaCl at pH 5.3. The stock solution was stored in aliquots at −80° C. Enzymatic reactions were conducted in ‘assay buffer’, comprising 50 mM Hepes/NaOH at pH 7.8, 150 mM NaCl, 1 mM EDTA and 0.05% (w/v) CHAPS.
Both, enzyme and substrate were diluted in assay buffer.
All protein and peptide containing solutions were handled in siliconized tubes (Life Systems Design, Merenschwand, Switzerland). The compound solutions as well as the enzyme and the substrate solutions were transferred to 384-well plates (black Cliniplate; cat. no. 95040020 Labsystems Oy, Finland) by means of a CyBi-Well 96-channel pipettor (CyBio AG, Jena, Germany). Plate measurements were conducted by the means of a Safire2 reader (TECAN, Maennedorf, Switzerland). The Safire2 is a monochomator-based instrument and wavelengths of 485 nm and 535 nm were taken for fluorescence excitation and emission acquisition, respectively. The bandwidths were set to 10 nm in both the excitation and the emission path. The fluorescence in each well was excited by three flashes per measurement.
For the determination of IC50 values, the assays were performed at room temperature in 384-well plates with a total assay volume of 25.25 μl per well.
The test compound was dissolved in 90% (v/v) DMSO/water. For the assays, […] of the 90% (v/v) DMSO/water solution or compound solution were added per well, followed by the addition of 12.5 μl protease solution (protease in assay buffer). The final assay concentration of the human plasma kallikrein was nominally 12 pM, the 11 compound concentrations in the dilution series were in the range form 1 nM to 100 μM. After 1 hour of pre-incubation at room temperature, the reactions were started by the addition of 12.5 μl substrate solution (in assay buffer, final assay concentration was 0.5 μM). After the addition of the substrate solution, the final DMSO concentration in the assay was 0.9% (v/v). The effect of the compound on the enzymatic activity was obtained from the linear part of the progress curves and determined after 1 hour (t=60 min). The IC50 value was calculated from the plot of percentage of inhibition vs. inhibitor concentration by a logistics fit according to the following equation:
where y is the %-inhibition at the inhibitor concentration, x. A1 is the lowest inhibition value, i.e. 0%, and A2 the maximum inhibition value, i.e. 100%. The exponent, p, is the Hill coefficient. The curve fitting was conducted with the non-linear regression routine of the analysis software Origin 7.5SR6 (Origin Lab Corporation).

T1 sequence (P03952 391-638 limits assumed): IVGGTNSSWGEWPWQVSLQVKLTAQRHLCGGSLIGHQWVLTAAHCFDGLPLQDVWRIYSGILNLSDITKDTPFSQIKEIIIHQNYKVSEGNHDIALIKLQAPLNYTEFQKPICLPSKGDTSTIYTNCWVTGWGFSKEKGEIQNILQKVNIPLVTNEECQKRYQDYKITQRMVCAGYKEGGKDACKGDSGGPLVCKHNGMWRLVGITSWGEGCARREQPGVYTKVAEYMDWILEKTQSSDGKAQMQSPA
T1 sequence (P03952 20-390 partner limits assumed): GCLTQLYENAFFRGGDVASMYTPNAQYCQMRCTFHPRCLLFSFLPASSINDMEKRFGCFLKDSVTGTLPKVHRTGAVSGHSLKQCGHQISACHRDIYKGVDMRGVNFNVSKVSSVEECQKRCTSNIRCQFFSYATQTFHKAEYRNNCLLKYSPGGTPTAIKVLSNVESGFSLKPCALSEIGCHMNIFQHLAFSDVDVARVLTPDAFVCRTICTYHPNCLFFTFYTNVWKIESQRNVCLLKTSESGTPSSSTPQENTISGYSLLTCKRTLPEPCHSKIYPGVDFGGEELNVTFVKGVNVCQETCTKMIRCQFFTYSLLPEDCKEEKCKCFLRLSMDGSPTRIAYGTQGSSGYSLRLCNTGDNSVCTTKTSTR

| SMILES | IC50 [µM] |
| --- | --- |
| C[C@@H](NC(=O)c1cnn(Cc2ccc(Cn3cccn3)cc2)c1)c1cccc(Cl)c1F [Example 28, (R)-1-(4-((1H-pyrazol-1-yl)methyl)benzyl)-N-(1-(3-chloro-2-fluorophenyl)ethyl)-1H-pyrazole-4-carboxamide] | 27.2 |
| Cn1nnc2cc(Cn3cc(C(=O)NCc4cccc(Cl)c4)cn3)ccc21 [N-(3-chlorobenzyl)-1-((1-methyl-1H-benzo[d][1,2,3]triazol-5-yl)methyl)-1H-pyrazole-4-carboxamide] | > 30 |
| COc1cccc(Cn2cc(C(=O)NCc3ccc(Cl)cc3)cn2)c1 [N-(4-chlorobenzyl)-1-(3-methoxybenzyl)-1H-pyrazole-4-carboxamide] | > 30 |
| COc1ccc(Cn2cc(C(=O)NCc3ccc(Cl)cc3)cn2)cc1 [N-(4-chlorobenzyl)-1-(4-methoxybenzyl)-1H-pyrazole-4-carboxamide] | > 30 |

Further lines, results first:

| IC50 [µM] | SMILES |
| --- | --- |
| > 30 | Cc1ccc(CNC(=O)c2cn(Cc3ccc4nc(C)ccc4c3)nn2)c(Cl)n1 [N-((2-chloro-6-methylpyridin-3-yl)methyl)-1-((2-methylquinolin-6-yl)methyl)-1H-1,2,3-triazole-4-carboxamide] |
| > 30 | COc1cc(C)c(CNC(=O)c2cn(Cc3ccc4nc(C)ccc4c3)nn2)c(C)n1 [N-((6-methoxy-2,4-dimethylpyridin-3-yl)methyl)-1-((2-methylquinolin-6-yl)methyl)-1H-1,2,3-triazole-4-carboxamide] |
